Experimental data published in ChEMBL document CHEMBL3120075 (J Med Chem, 2014).

Key:
[1] = Half life in fasted healthy human at 3 mg/kg, po; assay type: ADME, organism-based; set-up: dose 3 mg/kg, route oral; settings: in vivo
[2] = Cmax in fasted healthy human at 100 mg/kg, po; assay type: ADME, organism-based; set-up: dose 100 mg/kg, route oral; settings: in vivo
[3] = Volume of distribution at steady state in beagle dog at 0.2 mg/kg, iv; assay type: ADME, organism-based, Canis lupus familiaris; set-up: dose 0.2 mg/kg, route intravenous; settings: in vivo, read-out: Vdss
[4] = Plasma concentration in fasted healthy human at 3 mg/kg, po at 24 hrs; assay type: ADME, organism-based; set-up: dose 3 mg/kg, route oral
[5] = Metabolic stability in Sprague-Dawley rat liver microsomes assessed as hepatic extraction at 3 uM after 60 mins by LC/MS/MS analysis; assay type: ADME; settings: read-out: ERH
[6] = Mean residence time in Sprague-Dawley rat at 1 mg/kg, iv; assay type: ADME, organism-based; set-up: dose 1 mg/kg, route intravenous; settings: in vivo
[7] = Tmax in fasted healthy human at 3 mg/kg, po; assay type: ADME, organism-based; set-up: dose 3 mg/kg, route oral; settings: in vivo
[8] = Ratio of EC50 for HCV genotype 1a H77 infected in human HuH7 cells in presence of 10% BSA to plasma concentration in fasted healthy human at 100 mg, po at 24 hrs
Hepatitis C virus [9] = experiment: Ratio of EC50 for HCV genotype 1a H77 infected in human HuH7 cells in presence of 10% BSA to EC50 for HCV genotype 1a H77 infected in human HuH7 cells; assay type: functional, Hepacivirus hominis, Huh-7
[10] = AUC (infinity) in fasted healthy human at 100 mg/kg, po; assay type: ADME, organism-based; set-up: time infinity, dose 100 mg/kg, route oral; settings: plasma
[11] = Clearance in Sprague-Dawley rat at 1 mg/kg, iv; assay type: ADME, organism-based; set-up: dose 1 mg/kg, route intravenous; settings: in vivo
[12] = Tmax in fasted healthy human at 100 mg/kg, po; assay type: ADME, organism-based; set-up: dose 100 mg/kg, route oral; settings: in vivo
Hepatitis C virus [13] = experiment: Antiviral activity against HCV genotype 1b Con1 infected in human HuH7 cells assessed as inhibition of viral RNA replication after 3 days by renilla luciferase reporter gene assay in presence of 10% BSA; assay type: functional, organism-based, Hepacivirus hominis; settings: isolate Con1, Huh-7, 72 h
[14] = Oral bioavailability in beagle dog at 0.5 mg/kg; assay type: ADME, organism-based, Canis lupus familiaris; settings: in vivo
[15] = Metabolic stability in human liver microsomes assessed as hepatic extraction at 3 uM after 60 mins by LC/MS/MS analysis; assay type: ADME; settings: read-out: ERH
[16] = Mean residence time in beagle dog at 0.2 mg/kg, iv; assay type: ADME, organism-based, Canis lupus familiaris; set-up: dose 0.2 mg/kg, route intravenous; settings: in vivo
[17] = Plasma concentration in fasted healthy human at 10 mg/kg, po at 24 hrs; assay type: ADME, organism-based; set-up: dose 10 mg/kg, route oral
[18] = Ratio of EC50 for HCV genotype 1a H77 infected in human HuH7 cells in presence of human serum to plasma concentration in fasted healthy human at 3 mg/kg, po at 24 hrs; set-up: species or system Huh-7
[19] = Clearance in beagle dog at 0.2 mg/kg, iv; assay type: ADME, organism-based, Canis lupus familiaris; set-up: dose 0.2 mg/kg, route intravenous; settings: in vivo
[20] = Cmax in fasted healthy human at 30 mg/kg, po; assay type: ADME, organism-based; set-up: dose 30 mg/kg, route oral; settings: in vivo
[21] = AUC (infinity) in fasted healthy human at 30 mg/kg, po; assay type: ADME, organism-based; set-up: time infinity, dose 30 mg/kg, route oral; settings: plasma
[22] = Half life in fasted healthy human at 100 mg/kg, po; assay type: ADME, organism-based; set-up: dose 100 mg/kg, route oral; settings: in vivo
[23] = Ratio of EC50 for HCV genotype 1a H77 infected in human HuH7 cells in presence of human serum to plasma concentration in fasted healthy human at 100 mg, po at 24 hrs
[24] = AUC (infinity) in fasted healthy human at 60 mg/kg, po; assay type: ADME, organism-based; set-up: time infinity, dose 60 mg/kg, route oral; settings: plasma
Hepatitis C virus [25] = experiment: Ratio of EC50 for HCV genotype 1a H77 infected in human HuH7 cells in presence of human serum to EC50 for HCV genotype 1a H77 infected in human HuH7 cells; assay type: functional, Hepacivirus hominis, Huh-7
[26] = Volume of distribution at steady state in cynomolgus monkey at 0.5 mg/kg, iv; assay type: ADME, organism-based, Macaca fascicularis; set-up: dose 0.5 mg/kg, route intravenous; settings: in vivo, read-out: Vdss
Hepatitis C virus [27] = experiment: Antiviral activity against HCV genotype 1b Con1 infected in human HuH7 cells assessed as inhibition of viral RNA replication after 3 days by renilla luciferase reporter gene assay in presence of human serum; assay type: functional, organism-based, Hepacivirus hominis; settings: isolate Con1, Huh-7, 72 h
Hepatitis C virus [28] = experiment: Antiviral activity against HCV genotype 1a H77 infected in human HuH7 cells assessed as inhibition of viral RNA replication after 3 days by renilla luciferase reporter gene assay; assay type: functional, organism-based, Hepacivirus hominis; settings: genotype 1a H77, Huh-7, 72 h
Hepatitis C virus [29] = experiment: Ratio of EC50 for HCV genotype 1b Con1 infected in human HuH7 cells in presence of human serum to EC50 for HCV genotype 1b Con1 infected in human HuH7 cells; assay type: functional, Hepacivirus hominis, isolate Con1, Huh-7
[30] = AUClast in fasted healthy human at 30 mg/kg, po; assay type: ADME, organism-based; set-up: time 0 - last, dose 30 mg/kg, route oral; settings: plasma
[31] = Half life in fasted healthy human at 10 mg/kg, po; assay type: ADME, organism-based; set-up: dose 10 mg/kg, route oral; settings: in vivo
Hepatitis C virus [32] = experiment: Antiviral activity against HCV genotype 1a H77 infected in human HuH7 cells assessed as inhibition of viral RNA replication after 3 days by renilla luciferase reporter gene assay in presence of human serum; assay type: functional, organism-based, Hepacivirus hominis; settings: genotype 1a H77, Huh-7, 72 h

COC(=O)N[C@H](C(=O)N1CC2(CC2)C[C@H]1c1nc(-c2ccc3c(c2)C(F)(F)c2cc(-c4ccc5[nH]c([C@@H]6[C@H]7CC[C@H](C7)N6C(=O)[C@@H](NC(=O)OC)C(C)C)nc5c4)ccc2-3)c[nH]1)C(C)C
half-life [1]: 2710 min | Cmax [2]: 242 nM | Vd [3]: 1.19 L/kg | concentration at 24 h [4]: 2.45 nM | hepatic extraction ratio at 1 h, 3 µM [5]: < 0.092 | MRT [6]: 6.19 h | Tmax [7]: 5.25 h | Ratio [8]: 470 | Ratio EC50 (Hepatitis C virus [9]): 6.7 | AUC(0-inf) [10]: 8.66 µM·h | clearance [11]: 7.17 mL/min/kg | Tmax [12]: 5.5 h | EC50 (Hepatitis C virus [13]): 0.027 nM | bioavailability [14]: 53% | hepatic extraction ratio at 1 h, 3 µM [15]: < 0.127 | MRT [16]: 9.2 h | concentration at 24 h [17]: 7.94 nM | Ratio [18]: 12 | clearance [19]: 2.17 mL/min/kg | Cmax [20]: 82.2 nM | AUC(0-inf) [21]: 2.72 µM·h | half-life [22]: 2370 min | Ratio [23]: 470 | AUC(0-inf) [24]: 5.3 µM·h | Ratio EC50 (Hepatitis C virus [25]): 6.7 | Vd [26]: 2.15 L/kg | EC50 (Hepatitis C virus [27]): 0.027 nM | EC50 (Hepatitis C virus [28]): 0.031 nM | Ratio EC50 (Hepatitis C virus [29]): 6.7 | AUC(0-t) [30]: 2.24 µM·h | half-life [31]: 2540 min | EC50 (Hepatitis C virus [32]): 0.21 nM
